Results taken from patent publication US9918966B2, “Anti-cancer compositions and methods” (The Penn State Research Foundation, priority 2013, dated 2018).
Where two headings read alike, the source gives them in different places.

Assays:
[1] = From the text: Number of mice surviving and changes in body weight after 7 days of drug treatment is scored (Table I).
[2] = tested on: FF2441 human fibroblast cells; assay: Cell viability, MTS assay; assay type: cell-based
Description: (§1) Cell viability, proliferation, apoptosis and cell cycle analysis: Viability and IC50 (μmol/L) of normal human melanocytes, fibroblast and melanoma cells following treatment with inhibitors are measured using the MTS assay (Promega, Madison, Wis.) described in Sharma A, et al., Clin Cancer Res 2009; 15:1674-85; and Madhunapantula S V, et al., Mol Cancer Ther 2008; 7:1297-308. […] IC50 values for each inhibitor in μmol/L for respective cell lines are measured from three independent experiments using GraphPad Prism version 4.01 (GraphPad Software, La Jolla, Calif.).
(§2) The number of viable cells is measured using MTS and percentage decrease in viability calculated. IC50 values for each inhibitor in μmol/L for respective cell lines are measured from three independent experiments using GraphPad Prism version 4.01 (GraphPad Software, La Jolla, Calif.).

[3] = tested on: FOM103 normal human melanocytes; assay: Cell viability, MTS assay; assay type: cell-based; conditions: Melanocyte
Description: as §1, §2

[4] = tested on: WM115 vertical growth phase melanoma cells; assay: Cell viability, MTS assay; assay type: cell-based; conditions: Homo sapiens, WM-115
Description: as §1, §2

[5] = tested on: WM35 radial growth phase melanoma cells; assay: Cell viability, MTS assay; assay type: cell-based; conditions: Homo sapiens
Description: as §1, §2

[6] = tested on: 1205 Lu metastatic melanoma cells; assay: cells; conditions: Homo sapiens
Description: as §1, §2

[7] = tested on: UACC 903 metastatic melanoma cells; assay: cells; conditions: Homo sapiens
Description: as §1, §2

[8] = tested on: normal human melanocytes or fibroblast cells
Description: as §1

[9] = tested on: 1205 Lu melanoma cells; assay: Apo-ONE caspase-3/7 assay (apoptosis); assay type: cell-based, human; conditions: 72 h, dose dependent up to 25 μmol/L
From the text: (§3) Data represent averages of at least 3 independent experiments; bars; S.E.M.

[10] = tested on: UACC 903 melanoma cells; assay: Apo-ONE caspase-3/7 assay (apoptosis); assay type: cell-based, human
From the text: as §3

[11] = tested on: 1205 Lu melanoma cells; assay: Cell cycle analysis, propidium iodide FACScan; assay type: cell-based, human; conditions: 72 h
Description: (§4) The effect of selenocoxib-1-GSH on cell cycle distribution is measured by analyzing propidium iodide stained 1205 Lu and UACC 903 cells using a BD FACScan. […] Total floating and adherent cells are collected following trypsinization and stained using a 1 mL propidium iodide solution containing 100 μg/mL propidium iodide; (Sigma, St Louis, Mo.), 20 μg/mL Ribonuclease A (Roche diagnostics, Indianapolis, Ind.) and 3 μg/mL Triton X-100 dissolved in 0.1% (W/V) sodium citrate for 30 m at 4° C.
(§5) Selenocoxib-1-GSH treatment increases the sub-G0-G1 cell population, which is indicative of cellular apoptosis. […] Total floating and adherent cells are collected, and stained with propidium iodide to analyze the distribution of cells in different phases of the cell cycle stages using a FACScan analyzer. […] Data represents an average of 2 independent experiments.

[12] = tested on: UACC 903 melanoma cells; assay: Cell cycle analysis, propidium iodide FACScan; assay type: cell-based, human; conditions: 72 h
Description: as §4, §5

[13] = tested on: 1205 Lu melanoma cells; assay: Reactive oxygen species (ROS) assay; assay type: cell-based, human; conditions: 5, 10, 15 and 20 μmol/L, 24 hours, compared to celecoxib and selenocoxib-1
Description: (§6) Intracellular ROS are monitored according to a procedure described in detail in Smasundaram et al., Cancer Res., 62:3868-3875, 2002. […] After 24 hours treatment, total cells (floating and adherent) are collected in ice-cold phosphate-buffered saline and 5×10^3 cells/well placed in 100 microliters culture medium in a 96-well plate containing 10 micromoles/liter 2′,7′-dichlorfluorescein-diacetate (commercially available from Sigma, St. Louis, Mo.) and incubated at 37° C. for 30 minutes. The amount of ROS present compared to DMSO vehicle treated cells was represented in arbitrary units.
(§7) Selenocoxib-1-GSH inhibits the generation of ROS.

[14] = tested on: UACC 903 melanoma cells; assay: Reactive oxygen species (ROS) assay; assay type: cell-based, human; conditions: 5, 10, 15 and 20 μmol/L, 24 hours, compared to celecoxib and selenocoxib-1
Description: as §6, §7

In the case of NC(CCC(=O)NC(CS[Se]Cc1cc(-c2ccccc2)n(-c2ccc(S(N)(=O)=O)cc2)n1)C(=O)NCC(=O)O)C(=O)O (stereo not drawn) [Selenocoxib-1-GSH, selenocoxib-1-glutathione], the “% of weight loss” value ([1]; 0.127 μmoles (10 PPM) intraperitoneally daily for seven days) is reported as “No loss”, the “Mortality at Day 7” value ([1]; 0.127 μmoles intraperitoneally daily for seven days, 3 mice/group (Selenocoxib-1-GSH: 10 PPM)) is reported as 0/3 and the “% of weight loss” value ([1]; 0.254 μmoles (20 PPM) intraperitoneally daily for seven days) is reported as 2.0%. The “Mortality at Day 7” value ([1]; 0.254 μmoles (20 PPM) intraperitoneally daily for seven days, 3 mice/group) was 0/3, the mortality ([1]; 0.127 to 0.254, seven days) was “no mortality” and the weight loss ([1]; 0.127 to 0.254 moles (equivalent to 5 to 10 ppm of selenium), seven days) was ~2%. For the same compound, the IC50 ([2]; FF2441, 24 h) was > 100 µM, the IC50 ([2]; FF2441, 48 h) was 75.5 ± 5.6 µM and the IC50 ([2]; FF2441, 72 h) was 36.3 ± 5.6 µM. It also gave an IC50 ([3]; FOM103, 24 h) of 66.3 ± 3 µM, an IC50 ([3]; FOM103, 48 h) of 53.4 ± 4.3 µM and an IC50 ([3]; FOM103, 72 h) of 41.2 ± 3.2 µM. For the same compound, the IC50 ([4]; WM115, 24 h) was 30.1 ± 3.3 µM, the IC50 ([4]; WM115, 48 h) was 5.8 ± 0.9 µM and the IC50 ([4]; WM115, 72 h) was 3.1 ± 0.4 µM. The IC50 ([5]; WM35, 24 h) was 52.6 ± 3.8 µM, the IC50 ([5]; WM35, 48 h) was 4.1 ± 0.8 µM and the IC50 ([5]; WM35, 72 h) was 2.7 ± 0.4 µM. It also gave an IC50 ([6]; 24 h) of 24.6 ± 2.2 µM, an IC50 ([6]; 48 h) of 17.2 ± 1.6 µM and an IC50 ([6]; 72 h) of 10.6 ± 2.6 µM. For the same compound, the cytotoxicity at 12.5 µM ([6]; 72 h, read-out: decrease in cell viability) was 40 to 60%, the IC50 ([7]; UACC-903, 24 h) was 30.9 ± 2.8 µM and the IC50 ([7]; UACC-903, 48 h) was 20.6 ± 1.7 µM. The IC50 ([7]; UACC-903, 72 h) was 14.2 ± 1.2 µM, the cytotoxicity at 12.5 µM ([7]; UACC-903, 72 h, read-out: decrease in cell viability) was 40 to 60% and the “toxicity on normal cells relative to melanoma cells” value [8] was “significantly lower toxicity on normal cells”. For the same compound, the caspase-3/7 activity [9] was “increases caspase-3/7 activity”, the caspase-3/7 activity ([10]; UACC 903, 50 μmol/L, 72 h) was “significant decrease” and the caspase-3/7 activity ([10]; UACC 903, 72 h, dose dependent up to 25 μmol/L) was “increases caspase-3/7 activity”. The “increase of sub-G0-G1 population cells” value ([11]; 25 μmol/L) was 6.2 fold, the cell cycle progression ([11]; 12.5 and 25 μmol/L) was “inhibits cell cycle progression” and the “increase of sub-G0-G1 population cells” value ([12]; UACC 903, 25 μmol/L) was 4.7 fold. The cell cycle progression ([12]; UACC 903, 12.5 and 25 μmol/L) was “inhibits cell cycle progression”, the ROS [13] was “more dramatically decreased ROS” and the ROS [14] was “more dramatically decreased ROS”.
